According to patent US10729678B2, “Preparation of and formulation comprising a MEK inhibitor” (Array BioPharma Inc., priority 2012, dated 2020):

Tests used:
[1] = system: unresectable, locally advanced or metastatic biliary cancer; conditions: 28 patients with ≤1 prior systemic therapy; oral 60 mg twice daily; after at least 6 weeks of treatment; cited from earlier work
[2] = system: BRAFV600 or NRAS-mutant melanoma; conditions: patients with either BRAFV600 or NRAS-mutant melanoma; cited from earlier work
[3] = Solubility of Compound A in solvents and solvent mixtures; assay type: physicochemical
Procedure: Due to this low solubility, it is difficult to perform crystallization by standard cooling methods and to control crystal growth. […] This improvement in solubility contributes to an improvement in the purity profile of the final drug substance.
As discussed above, the crystallization process makes use of anti-solvent cooling system. In step d), water is added to the suspension or the cooled suspension mixture to provide a treated mixture. Water, which in general acts as an anti-solvent (solubility <0.01% over a wide temperature range), also unexpectedly acts as a solvent for Compound A when part of the water/methanol/tetrahydrofuran solvent system.

- solubility in most standard solvents ([3]; room temperature): less than 1%
- increase of solubility on addition of water to solvent mixture ([3]; tetrahydrofuran and methanol with water, compared to methanol and tetrahydrofuran without water): approximately 50%
- solubility in water (anti-solvent) ([3]; water, broad/wide temperature range): < 0.01%
Compound: Cn1cnc2c(F)c(Nc3ccc(Br)cc3F)c(C(=O)NOCCO)cc21 [Compound A, 6-(4-Bromo-2-fluorophenylamino)-7-fluoro-3-methyl-3H-benzoimidazole-5-carboxylic acid (2-hydroxyethyoxy)-amide]
- complete regression (number of patients) [1]: 1
- partial regression (number of patients) [1]: 1
- stable disease diagnoses (number of patients) [1]: 11
- effectiveness in treatment of patients [2]: effective
- solvent mixture at which maximum solubility is reached ([3]; 65° C., solubility decreases with further addition of water): water (24%), methanol (38%), and tetrahydrofuran (38%)
